The nature of the series: Thioflavin T (ThT) fibrillation assay for physical stability. The series is classed as physicochemical. The conditions noted are these: 250 μM in 10 mM HEPES buffer, pH 7.5, 37° C., shaking 960 rpm. The method in brief:
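Peptide at 250 μM in 10 mM HEPES pH 7.5 with 1 μM ThT, at 37° C with 960 rpm orbital shaking. Fluorescence (ex 444/em 485 nm) read every 20 min after 10 min pre-incubation; sigmoidal fit gives lag time (t0−2τ) and kapp (1/τ). Recovery is RP-HPLC peptide in the centrifuged, 0.22 μm-filtered supernatant as % of initial.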

Numbered stars: 1 amine (or outer) side, 2 acyl side, 3 side chain; on linkers, the order of the positions; unused ones are H or OH. Bridge positions count the residues as written; N and C are the ends. Square brackets hold non-standard residues; d marks the D form. Peptide text beside a SMILES is read from it. I, II: the chains in the order shown. * marks the point of attachment. C18 diacid = O=C(O)CCCCCCCCCCCCCCCCC(=O)*; γGlu = O=C(O)[C@H](CCC(=O)[*:2])N[*:1]; Ac4c = NC1(C(=O)O)CCC1; Aib = CC(C)(N)C(=O)O

Turning to `CC(C)C[C@H](NC(=O)[C@H](Cc1ccc(O)cc1)NC(=O)[C@H](CCCCN)NC(=O)[C@H](CO)NC(=O)[C@H](CC(C)C)NC(=O)[C@H](CC(=O)O)NC(=O)[C@H](CO)NC(=O)[C@@H](NC(=O)[C@H](Cc1ccccc1)NC(=O)[C@@H](NC(=O)CNC(=O)[C@H](CCC(N)=O)NC(=O)C1(NC(=O)[C@@H](N)Cc2c[nH]cn2)CCC1)[C@@H](C)O)[C@@H](C)O)C(=O)N[C@@H](CCC(=O)O)C(=O)N[C@@H](CO)C(=O)N[C@@H](CCCCN)C(=O)N[C@@H](CCCNC(=N)N)C(=O)N[C@@H](C)C(=O)N[C@@H](CCCNC(=N)N)C(=O)N[C@@H](CCC(=O)O)C(=O)N[C@@H](Cc1ccccc1)C(=O)N[C@H](C(=O)N[C@@H](CCC(N)=O)C(=O)N[C@@H](Cc1c[nH]c2ccccc12)C(=O)N[C@@H](CC(C)C)C(=O)N[C@@H](CC(C)C)C(=O)N[C@@H](CCCCNC(=O)CNC(=O)[C@H](CO)NC(=O)[C@H](CCC(=O)O)NC(=O)CNC(=O)[C@H](CO)NC(=O)CC[C@H](NC(=O)CC[C@H](NC(=O)CCCCCCCCCCCCCCCCC(=O)O)C(=O)O)C(=O)O)C(=O)N[C@H](C(N)=O)[C@@H](C)O)C(C)C` [Example 36, N^ε28-[2-[[(2S)-2-[[(2S)-4-carboxy-2-[[2-[[(2S)-2-[[(4S)-4-carboxy-4-[[(4S)-4-carboxy-4-(17-carboxyheptadecanoylamino)butanoyl]amino]butanoyl]amino]-3-hydroxypropanoyl]amino]acetyl]amino]butanoyl]amino]-3-hydroxypropanoyl]amino]acetyl]-[Acb2,Leu10,Glu15,Lys17, Arg20,Glu21,Leu27,Lys28]-Glucagon amide] (I: H-H[Ac4c]QGTFTSDLSKYLESKRAREFVQWLLKT-NH2 / II: {C18 diacid-γGlu-γGlu}-SGESG; amide I:28-II:C; N-terminus assumed), the THT assay Lag time (Ex. 76) was found to be 45 h.

In turn, `CC(C)C[C@H](NC(=O)[C@H](Cc1ccc(O)cc1)NC(=O)[C@H](CCCCN)NC(=O)[C@H](CO)NC(=O)[C@H](CC(C)C)NC(=O)[C@H](CC(=O)O)NC(=O)[C@H](CO)NC(=O)[C@@H](NC(=O)[C@H](Cc1ccccc1)NC(=O)[C@@H](NC(=O)CNC(=O)[C@H](Cc1c[nH]cn1)NC(=O)C(C)(C)NC(=O)[C@@H](N)Cc1c[nH]cn1)[C@@H](C)O)[C@@H](C)O)C(=O)N[C@@H](CCC(=O)O)C(=O)N[C@@H](CO)C(=O)N[C@@H](CCCNC(=N)N)C(=O)N[C@@H](CCCNC(=N)N)C(=O)N[C@@H](C)C(=O)N[C@@H](CCCNC(=N)N)C(=O)N[C@@H](CC(=O)O)C(=O)N[C@@H](Cc1ccccc1)C(=O)N[C@H](C(=O)N[C@@H](CCC(N)=O)C(=O)N[C@@H](Cc1c[nH]c2ccccc12)C(=O)N[C@@H](CC(C)C)C(=O)N[C@@H](CC(C)C)C(=O)N[C@@H](CCCCNC(=O)CNC(=O)[C@H](CO)NC(=O)[C@H](CCC(=O)O)NC(=O)CNC(=O)[C@H](CO)NC(=O)CC[C@H](NC(=O)CC[C@H](NC(=O)CCCCCCCCCCCCCCCCC(=O)O)C(=O)O)C(=O)O)C(=O)N[C@H](C(N)=O)[C@@H](C)O)C(C)C` [Example 37, N^ε28-[2-[[(2S)-2-[[(2S)-4-carboxy-2-[[2-[[(2S)-2-[[(4S)-4-carboxy-4-[[(4S)-4-carboxy-4-(17-carboxyheptadecanoylamino)butanoyl]amino]butanoyl]amino]-3-hydroxypropanoyl]amino]acetyl]amino]butanoyl]amino]-3-hydroxypropanoyl]amino]acetyl]-[Aib2,His3,Leu10,Glu15, Arg20,Leu27,Lys28]-Glucagon amide] (I: H-H[Aib]HGTFTSDLSKYLESRRARDFVQWLLKT-NH2 / II: {C18 diacid-γGlu-γGlu}-SGESG; amide I:28-II:C; N-terminus assumed) had a THT assay Lag time (Ex. 76) of 45 h.

The values above are taken from patent US9474790B2, “Stable, protracted GLP-1/glucagon receptor co-agonists for medical use” (Novo Nordisk A/S, priority 2013, dated 2016).
